Reference: paper PMC2885425, “Complete Phenotypic Recovery of an Alzheimer's Disease Model by a Quinone-Tryptophan Hybrid Aggregation Inhibitor” (PLoS ONE, 2010)

How the values were obtained:
[1] = molecular target: T1, β-amyloid polypeptide (Aβ1–42) (Homo sapiens, UniProt P05067); experiment: fluorescence anisotropy titration (Aβ[…] early assemblies); supported by 1H-NMR shift perturbation with Aβ[…] and ThT fibril inhibition (IC50 […]); format: binding
T1 construct: gene APP; Aβ1–42 (synthetic, early oligomeric assemblies); NMR with Aβ12–28
T1 sequence (P05067 672-713): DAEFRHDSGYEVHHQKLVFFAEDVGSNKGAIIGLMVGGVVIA

[2] = molecular target: Arctic (Arc) (E22G) mutant form of Aβ1–42 (human); experiment: immunoprecipitation with antibody 6E10 and western blot of SDS-stable oligomers; head extracts (PBS, protease inhibitor, 1% SDS) of 6 day old Aβarc1-42-expressing flies on regular food; samples boiled

Kd [1] | stoichiometry N [2] | Molecule
~90 nM | – | O=C1C=C(N[C@@H](Cc2c[nH]c3ccccc23)C(=O)O)C(=O)c2ccccc21 [IL, 1,4-naphthoquinon-2-yl-L-tryptophan]
– | 4 | Arctic (Arc) (E22G) mutant form of Aβ1–42 (peptide)
